In general, Kd refers to the concentration at which binding is half-saturated.

This assay deals with cGMP-specific 3',5'-cyclic phosphodiesterase (Homo sapiens, UniProt O76074). In words: Binding affinity to recombinant PDE5 catalytic domain (unknown origin) by ITC analysis. For orientation: In ITC the heat of successive injections is recorded.
With `CCCOc1ccc(S(=O)(=O)N2CCN(C)CC2)cc1-c1nc(CC)c(I)c(=O)[nH]1`, the Kd came to 152 nM.
As for `CCCOc1ccc(S(=O)(=O)N2CCN(C)CC2)cc1-c1nc(CC)cc(=O)[nH]1`, the Kd worked out at 1450 nM.
As for `CCCOc1ccc(S(=O)(=O)N2CCN(C)CC2)cc1-c1nc(CC)c(F)c(=O)[nH]1`, the Kd came to 1730 nM.
The result for `CCCOc1ccc(S(=O)(=O)N2CCN(C)CC2)cc1-c1nc(CC)c(Br)c(=O)[nH]1` reads 416 nM; that for `CCCOc1ccc(S(=O)(=O)N2CCN(C)CC2)cc1-c1nc(CC)c(Cl)c(=O)[nH]1`, 767 nM.

The record behind these values is ChEMBL document CHEMBL3232929, “Thermodynamic and structural characterization of halogen bonding in protein-ligand interactions: a case study of PDE5 and its inhibitors” (J Med Chem, 2014).
